Patent US20210301038A1, “POLYSIALIC ACID AND DERIVATIVES THEREOF, PHARMACEUTICAL COMPOSITION AND METHOD OF PRODUCING POLYSIALIC ACID” (Medizinische Hochschule Hannover (MHH), priority 2018, published 2021)

Assays:
[1] = system: C57BL/6J mice with intra-mPFC endoNF injection; experiment: Novel object recognition test before and after intra-mPFC endoNF injection; format: in vivo, mouse; conditions: 30 min before encoding; sarcosine 600 mg/kg i.p. (d2); DP12 (d5) and DP1 (d6) 1 mg/kg intranasally
Method: Guide cannulas were fabricated using stainless steel tubing with outer/inner diameter Ø 0.711/0.483 mm (Science Products, Germany). Dummy cannulas were made from entomological pins, size 2, Ø 0.41 mm (FST, Germany). Chronic implantation of cannulas into the mPFC in mice was performed as described previously for intrahippocampal injections (Kochlamazashvili et al., 2012; Senkov et al., 2015; Senkov et al., 2006).
Acute injection of endoNF in vivo was done under a short isoflurane anesthesia. For intra-mPFC injection, we used a digitally controlled infusion system (UltraMicroPump, UMP3, and Micro4 Controller, WPI, USA) fed with a 10 μl-Hamilton syringe and NanoFil 135 μm (35 GA) beveled needle. The thin (135 μm) part of the needle went into the mouse brain during injection, whereas its thick part (430 μm) fit perfectly in the guide cannula (inside 483 μm). Injections were performed as follows: 1) a mouse was anesthetized with 1-3% isoflurane as during implantation; 2) it was put into the stereotaxic frame; 3) the dummy cannula was gently removed from the left guide cannula; 4) a NanoFil injecting needle was carefully placed inside of the guide cannula and advanced further down until reaching the marker (made with a permanent pen at the needle shank (430 μm) to visualize the point when the needle should reach the surface of the brain coming out of the guide cannula (equal to the length of guide cannula); 5) once the marker was reached, a slow (10 μm increment) step dial was used to deepen the needle into the brain; 6) endoNF (2 μg/μl) or vehicle was injected with the following settings: 250 nl per site as deep as 1.5 and 2.25 mm from the brain surface (total injection volume per hemisphere 500 nl, injection rate of 3 nl/s); 7) after injection was complete (˜5 min), the needle was left in the injection site for another 5 min and then gently removed; 8) the dummy cannula was then put back to its place; 9) the same procedure was performed for the right hemisphere. The whole injection process took approximately 20-25 min under isoflurane anesthesia, and the mice recovered rather quickly, starting to move in approximately 2-3 min after being returned to their home cages. Complete recovery of a mouse after such short anesthesia usually occurs within 3-5 min. After injection, mice were returned to their animal facility. Behavior experiments started on the day after injection at approximately the same time, so that we could perform cognitive tests 24 hours after injection.
A white open field arena (50×50×30 cm) was used in the novel object recognition task. All behavior was video recorded and analyzed automatically by software (ANY-maze, version 4.99, Stoelting Co., Wood Dale, Ill.). […]

NMDAR-mediated currents = conditions: cultured hippocampal neurons; cited from earlier work
[2] = system: NMDAR-EPSCs (GluN1/GluN2B receptors); experiment: Evoked NMDAR-EPSCs, whole-cell patch-clamp of layer V pyramidal neurons in sham- or endoNF-treated mPFC slices; format: cell-based, mouse; conditions: endoNF-treated mPFC slices; DP1 10 μg/ml; DP5 1 μg/ml and 10 μg/ml
Excerpt: Each mouse was quickly sacrificed by cervical dislocation. After decapitation, the brain was rapidly removed from the skull and placed in ice-cold artificial cerebrospinal fluid (aCSF) equilibrated with 95% O2/5% CO2, which was composed of the following (in mM): 250 sucrose, 24 NaHCO3, 25 glucose, 2.5 KCl, 1.25 NaH2PO4, 2 CaCl2, and 1.5 MgCl2 (osmolarity 345-350 mOsm/kg, pH 7.4). Using a VT1200S vibratome (Leica, Nussloch, Germany), coronal slices containing the prelimbic and infralimbic cortices (1.9-1.3 mm anterior to bregma) were cut 350 μm or 400 μm thick, for patch clamp and extracellular recordings, respectively, in the same sucrose-containing aCSF. Then, the slices were transferred to a slice holding chamber filled with recording aCSF (osmolarity 300-305 mOsm/kg, pH 7.4) that contained 120 mM NaCl instead of sucrose (Eckhardt et al., 2000) and was continuously gassed with 95% O2/5% CO2.
For endoNF treatment in C57BL/6J mice, slices were first allowed to recover for 20 min at room temperature (22-24° C.) in recording aCSF and were then placed in a 24-well plate to be incubated in 2 ml of aCSF without (sham) or with addition of endoNF (10 μg/ml) at 35° C. for 2 hours. The 24-well plate was installed in a water bath (ED, Julabo, Seelbach, Germany). For field excitatory postsynaptic potential (fEPSP) recordings in knockout and transgenic mice, mPFC slices were incubated in recording aCSF for >2 hours at room temperature before recordings. For patch-clamp recordings in knockout mice, slices were incubated first at 35° C. for 20 min and then at room temperature for >30 min before recordings started. The aCSF was continuously gassed with 95% O2/5% CO2 during all incubation steps and recordings.
For whole-cell patch-clamp recordings, layer V pyramidal neurons were visualized using a SliceScope Pro 6000 equipped with a 40× water-immersion objective and infrared differential interference contrast microscopy (Scientifica, Uckfield, UK). Pyramidal cells were identified by their triangular soma and long apical dendrites, and synaptically evoked excitatory postsynaptic currents (EPSCs) were recorded using patch pipettes (3-5 MQ) fabricated using borosilicate glass capillaries (wall thickness 0.315, length 100, outer diameter 1.5 mm, Hilgenberg) and a DMZ-Zeitz puller (Zeitz Instruments GmbH, Martinsried, Germany). The intracellular pipette solution contained the following (in mM): 140.7 Cs-methane-sulfonate, 5 NaCl, 1 MgCl2, 0.2 EGTA, 10 HEPES, 3 ATP-Mg, 0.3 Na-GTP, and 3.1 QX-314 (osmolarity 295 mOsm/kg, adjusted to pH 7.2 with CsOH). EPSCs were evoked by electrical pulses (0.2 ms) at 0.033 Hz via a glass pipette placed in layer II/III of the mPFC (identically to fEPSPs). Mixed EPSCs showing a fast AMPAR-mediated component and a slow NMDAR-mediated component were recorded at a −60 mV holding potential in whole-cell voltage-clamp mode in normal aCSF. The stimulation intensity was adjusted to evoke mixed EPSCs with amplitudes of approximately 300 pA. The slow NMDAR-mediated component of EPSCs was pharmacologically isolated at −60 mV in modified aCSF containing low Mg^2+ (0.1 mM) and high Ca^2+ (3.2 mM, for adjustment of divalent cation concentrations), the selective antagonist of α-amino-3-hydroxy-5-methyl-4-isoxazolepropionic acid (AMPA)/kainate receptors NBQX (10 μM), and the selective antagonist of γ-aminobutyric acid (GABA)B receptors CGP-55845 (2 μM) (Chen et al., 2003). The washout of Mg^2+ required at least 25 min. Recordings at a holding potential near the resting membrane potential allowed us to obtain stable NMDAR-EPSC recordings from pyramidal cells lasting for 1-1.5 hours. Series resistance (Rs, range 10-25 MΩ) was compensated (20-30%) and monitored continuously. Neurons in which Rs changed by more than 20% throughout the experiment were not included in the analysis. In voltage-clamp mode, membrane potential was not corrected for liquid junction potential. […]

5×FAD mice = experiment: Recency test (increased difficulty) in 5×FAD mice; format: in vivo, mouse; conditions: intranasal, 0.5 mg/kg DP12 or equimolar, 2 hours before test; 90 min intervals
Method: The recency test comprised of two encoding phases followed by a retrieval phase (modified from Nelson et al., 2011). The interval between the encoding phases was 1 h, and the interval between the second encoding phase and the retrieval phase was 10 min, except for experiments in 5×FAD mice when both intervals were 90 min to make the task more difficult. In the first encoding phase, animals were placed into the open field arena and allowed to explore a pair of identical objects for 10 min. Then, a different pair of identical objects was presented in the second encoding phase (10 min total exploration time). During the retrieval phase, two different objects, one object from each encoding phase, were placed into the apparatus and animals were given 10 min to explore them.
Animals were randomly assigned to treatment groups using a randomized block design to counterbalance differences in age. The time of the day when tests were performed for different animals was also counterbalanced between treatment groups using a randomized block design. All measurements and statistical analyses were performed performed blindly, i.e. the tubes containing drugs/vehicle were coded. Exploration was defined as the animal approaching the object at a distance of less than 2 cm. The animal climbing onto the object with both hind- and forelimbs was not considered as exploration. In the same trial, objects were counterbalanced, and between trials, the placements of novel and familiar objects were changed. The objects used in the novel object recognition test were not employed in the recency test. Novelty detection was evaluated by calculating the discrimination ratio as follows: [novel object time−familiar object time]/[novel object time+familiar object time]×100%. In the recency test, the discrimination ratio was calculated as follows: [least recent object time−most recent object time]/[least object time+most recent object time]×100%. Unreliable measurements (about 10%), when animals spent in total ≤10 s near to both objects, were excluded from analysis.
As the recency test was consistently used for analysis of DP12 effects in other mouse models, it was further investigated whether 13- to 14-month-old 5×FAD mice are impaired in this form of memory. In this series of experiments, the intervals between each session during recency test were increased to 90 min to increase the difficulty to recall the temporal order of the two objects shown in the arena (FIG. 12(A)). […] To verify whether DP12 or avDP10-9OAc may improve cognitive function in the 5×FAD model of AD, these compounds or a vehicle (H2O) were intranasally delivered in the same cohort of 5×FAD mice before multiple recency test sessions (separated by 4 day-interval). The numbers of mice in each treatment group during one session were counterbalanced and each mouse received in a random order both drugs and the vehicle. […] In contrast, vehicle-treated 5×FAD mice explored the two objects equally (FIG. 12(C)).

[3] = system: dissociated hippocampal cultures (primary neural cells); experiment: MTT assay of neural cell viability; format: cell-based, mouse; conditions: 30 to 1000 nM, 48 hours, from 10th day in vitro; DP10 effect at 30, 100 and 300 nM
Method: Primary hippocampal cells were dissociated from embryonic mice on embryonic day 18. To prepare the primary neural cultures, pregnant C57/BL6J mice were sacrificed by cervical dislocation. Embryos were decapitated, and the hippocampi isolated from brains under sterile conditions and dissected. Enzymatic digestion by 0.25% trypsin/EDTA solution was followed by separation of the cells in serum-containing medium via trituration (10 passes, 1 ml pipette). The primary cells were seeded onto 96-well plates coated with 100 μg/ml poly-lysine and 20 μg/ml laminin. The plating density was 20,000 cells per well. First, 200 μl Dulbecco's modified Eagle's medium (DMEM) was applied per well (supplemented with 1% penicillin-streptomycin and 1% L-glutamine and 2% B27). After incubation for 2 h at 37° C./5% CO2, the medium was exchanged with the pre-warmed Neurobasal medium including 1% penicillin-streptomycin, 1% L-glutamine, and 2% B27. The cells—predominantly neurons and astrocytes—were incubated at 37° C. in 5% CO2 humidified atmosphere for 10 days before administration of reagents.
The assay was performed as described elsewhere with minor modifications (Khalid et al., 2018). Primary neural cells (see above) grown in a 96-well plate were exposed to drugs/vehicles for 48 h at 37° C./5% CO2. After aspiration of culture media, a washing was done with 100 μl phosphate buffered saline (PBS, pH=7.2). Then, PBS was completely removed, and 100 μl phenol red-free pre-warmed Neurobasal media and 50 μl MTT solution (3-(4,5-dimethylthiazol-2-yl)-2,5-diphenyltetrazolium bromide, 5 mg/ml; dissolved in PBS) were added to each well and plates were incubated for 4 h in an incubator. […] DMSO destroyed the cells and released the formazan, which was detected by optical density value at 560 nm, measured using a plate reader. Optical density values for wells containing cells were corrected by subtracting values measured in cell-free wells prepared and treated in the same way as wells containing control cells.

Molecule | novel object recognition after intra-mPFC endoNF injection [1] | inhibition of NMDAR-mediated currents (NMDAR-mediated currents) | effect on the amplitude of NMDAR-EPSCs [2] | exploration of least recent versus most recent object in the retrieval phase (5×FAD mice) | object discrimination (discrimination ratio) compared to vehicle (5×FAD mice) | effect on neural cell viability [3]
CC(=O)N[C@H]1[C@H]([C@H](O)[C@H](O)CO)OC(O)(C(=O)O)C[C@@H]1O (stereo partly drawn) [DP1, N-acetylneuraminic acid] | no effect | do not inhibit | no effect |  |  | 
(α(2→8)Neu5Ac)10 [DP10] |  |  |  | preference for the least recently explored object | significantly better in object discrimination | strong potentiating effect
